# Assay results reported in ChEMBL document CHEMBL5032536, “Synthesis and Cytotoxic Activity of Lepidilines A-D: Comparison with Some 4,5-Diphenyl Analogues and Related Imidazole-2-thiones” (J Nat Prod, 2021).
# Experiments:
# [1] = Selectivity ratio of IC50 for cytotoxicity against HUVEC cells to IC50 for cytotoxicity against human HL-60 cells; type: toxicity, cell-based; conditions: HUVEC cells versus HL-60 cells, read-out: Ratio IC50
# [2] = Selectivity ratio of IC50 for cytotoxicity against human MCF7 cells to IC50 for cytotoxicity against human HL-60 cells; type: toxicity, cell-based; conditions: MCF7 cells versus HL-60 cells, read-out: Ratio IC50
smiles,measurement,setting,value
COc1cccc(Cn2c(C)c(C)[n+](Cc3ccccc3)c2C)c1,selectivity ratio,[1],> 100
same,selectivity ratio,[2],> 100
